Molecules are shown by their SMILES. “And” between values parts separate entries of the source, which are not always exact repeats. Equal entries are not always repeated. Toxic doses and inconclusive results are not listed. *1 amine or outer side, *2 acyl side, *3 side chain or, on linkers, in order; H or OH if unused. Where a SMILES comes first, the peptide text is derived from it. Bridges are numbered along the chain shown (N, C = ends). Roman numbers before positions name the chains, in order. [ ]: non-standard residue; d: D form. Actinocin(9to1) = Cc1c2oc3c(C)ccc(C(=O)[*:1])c3nc-2c(C(=O)[*:2])c(N)c1=O; aThr = C[C@H](O)[C@H](N)C(=O)O; NMeV = CN[C@H](C(=O)O)C(C)C; Sar = CNCC(=O)O

For this experiment, the system named is CD2F1 mice, P388/ADR leukemia ip, median survival T/C. The experiment in a line: NCI In Vivo Anticancer Drug Screen. Data for tumor model P388 Leukemia resistant to Adriamycin; NSC 123127, Developed at Scr 08 (intraperitoneal) in CD2F1 (CDF1) mice. The note with it: endpoint: median survival time, higher = longer survival. How it is done: The antitumor activity of compounds was measured in mice bearing transplantable tumors. Survival or tumor size were measured and the results are expressed as the measurement made in the treated group (T) divided by the measurement made in the vehicle treated control group (C). The tumor model used in this assay is P388 Leukemia resistant to Adriamycin; NSC 123127, Developed at Scr 08 (intraperitoneal) in CD2F1 (CDF1) mice

The mark [1] stands for this setting: dose: 1.5 mg/kg/injection, schedule: Q01DX005 (ip), vehicle: saline with Tween-80.
The mark [2] stands for this setting: dose: 3.0 mg/kg/injection, schedule: Q01DX005 (ip), vehicle: saline with Tween-80.
Setting [3] is: dose: 6.0 mg/kg/injection, schedule: Q01DX005 (ip), vehicle: saline with Tween-80.

Regarding `CC[C@@]1(O)C(=O)OCc2c1cc1n(c2=O)Cc2cc3ccccc3nc2-1`, the T/C under setting [1] was 161 % of control; the T/C (dose: 2.1 mg/kg/injection, schedule: Q01DX005 (ip), vehicle: saline with Tween-80) was 223 % of control; the T/C under setting [2] is 200 % of control; the T/C (dose: 3.6 mg/kg/injection, schedule: Q01DX005 (ip), vehicle: saline with Tween-80) was 222 % of control; the T/C under setting [3] is 216 % of control; the T/C (dose: 6.7 mg/kg/injection, schedule: Q04DX002 (ip), vehicle: saline with Tween-80) was 198 % of control and 232 % of control. For the same compound, the T/C reads like this: (dose: 10.0 mg/kg/injection, schedule: Q04DX002 (ip), vehicle: saline with Tween-80) 207 % of control and 232 % of control; (dose: 15.0 mg/kg/injection, schedule: Q04DX002 (ip), vehicle: saline with Tween-80) 215 % of control and 236 % of control.
On to `N[C@@H](Cc1ccc(N(CCCl)CCCl)cc1)C(=O)O`, for which the T/C is, setting by setting: (dose: 0.5 mg/kg/injection, schedule: Q01DX005 (ip), vehicle: saline) 171 % of control and 202 % of control; (dose: 1.0 mg/kg/injection, schedule: Q01DX005 (ip), vehicle: saline) 200 % of control and 202 % of control; (dose: 1.62 mg/kg/injection, schedule: Q04DX003 (ip), vehicle: water) 207 % of control; (dose: 2.0 mg/kg/injection, schedule: Q01DX005 (ip), vehicle: saline) 202 % of control and 297 % of control; (dose: 2.7 mg/kg/injection, schedule: Q04DX003 (ip), vehicle: water) 215 % of control; (dose: 4.0 mg/kg/injection, schedule: Q01DX005 (ip), vehicle: saline) 202 % of control and 297 % of control. Moreover, the T/C by setting is: (dose: 4.5 mg/kg/injection, schedule: Q04DX003 (ip), vehicle: water) 290 % of control; (dose: 7.5 mg/kg/injection, schedule: Q04DX003 (ip), vehicle: water) 109 % of control; (dose: 8.0 mg/kg/injection, schedule: Q01DX005 (ip), vehicle: saline) 297 % of control; (dose: 12.5 mg/kg/injection, schedule: Q04DX003 (ip), vehicle: water) 95 % of control.
Consider `CCN(CC)CCn1[nH]c2c3ccc(=O)cc3sc3c(NCCN)ccc1c32`, for which the T/C reads like this: (dose: 1.56 mg/kg/injection, schedule: Q01DX005 (ip), vehicle: water) 99 % of control; (dose: 3.12 mg/kg/injection, schedule: Q01DX005 (ip), vehicle: water) 95 % of control; (dose: 6.25 mg/kg/injection, schedule: Q01DX005 (ip), vehicle: water) 106 % of control; (dose: 12.5 mg/kg/injection, schedule: Q01DX005 (ip), vehicle: water) 91 % of control.
Consider `Cc1cc(O)c2c(c1O)C(=O)C13C(=C2O)C(=O)C2C(O)C1C1C(O)C3C(=O)C3=C(O)c4c(O)cc(C)c(O)c4C(=O)C321` (centres undefined), for which the T/C by setting is: (dose: 0.75 mg/kg/injection, schedule: Q01DX005 (ip), vehicle: saline with Tween-80) 101 % of control; under setting [1], 117 % of control; under setting [2], 122 % of control; under setting [3], 123 % of control.
As to `CN(C)[C@@H]1C(=O)C(C(=O)NCN2CCN(C(=N)N=C(N)N)CC2)=C(O)[C@@]2(O)C(=O)C3=C(O)c4c(O)cccc4[C@@](C)(O)[C@H]3C[C@@H]12`, the T/C is, setting by setting: (dose: 0.62 mg/kg/injection, schedule: Q01DX005 (ip), vehicle: saline) 113 % of control; (dose: 1.25 mg/kg/injection, schedule: Q01DX005 (ip), vehicle: saline) 100 % of control; (dose: 1.8 mg/kg/injection, schedule: Q01DX005 (ip), vehicle: suspension in saline) 97 % of control; (dose: 2.5 mg/kg/injection, schedule: Q01DX005 (ip), vehicle: saline) 106 % of control; (dose: 3.0 mg/kg/injection, schedule: Q01DX005 (ip), vehicle: suspension in saline) 115 % of control; (dose: 5.0 mg/kg/injection, schedule: Q01DX005 (ip), vehicle: saline) 152 % of control. Further, the T/C (dose: 5.0 mg/kg/injection, schedule: Q01DX005 (ip), vehicle: suspension in saline) is 107 % of control.
Consider `NC(N)=NS(=O)(=O)c1ccc(NCc2c3ccccc3nc3ccccc23)cc1`, for which the T/C was 101 % of control (dose: 50.0 mg/kg/injection, schedule: Q04DX003 (ip), vehicle: Klucel (hydroxypropylcellulose) (HPC)); 97 % of control (dose: 100.0 mg/kg/injection, schedule: Q04DX003 (ip), vehicle: Klucel (hydroxypropylcellulose) (HPC)); 100 % of control (dose: 200.0 mg/kg/injection, schedule: Q04DX003 (ip), vehicle: Klucel (hydroxypropylcellulose) (HPC)); 87 % of control (dose: 400.0 mg/kg/injection, schedule: Q04DX003 (ip), vehicle: Klucel (hydroxypropylcellulose) (HPC)).
For `CN(C)/N=N/c1nc[nH]c1C(N)=O`, the T/C by setting is: (dose: 25.0 mg/kg/injection, schedule: Q01DX009 (ip), vehicle: distilled water + Tween-80) 112 % of control; (dose: 50.0 mg/kg/injection, schedule: Q01DX009 (ip), vehicle: distilled water + Tween-80) 124 % of control; (dose: 100.0 mg/kg/injection, schedule: Q01DX009 (ip), vehicle: distilled water + Tween-80) 166 % of control; (dose: 200.0 mg/kg/injection, schedule: Q01DX009 (ip), vehicle: distilled water + Tween-80) 158 % of control and 178 % of control; (dose: 400.0 mg/kg/injection, schedule: Q01DX009 (ip), vehicle: distilled water + Tween-80) 201 % of control and 123 % of control.
Consider `CC1=C(C(N)=O)C(c2ccccc2)NC(=S)N1` (centres undefined), for which the T/C is 99 % of control (dose: 3.12 mg/kg/injection, schedule: Q01DX005 (ip), vehicle: Klucel (hydroxypropylcellulose) (HPC)); 101 % of control (dose: 6.25 mg/kg/injection, schedule: Q01DX005 (ip), vehicle: Klucel (hydroxypropylcellulose) (HPC)); 98 % of control (dose: 12.5 mg/kg/injection, schedule: Q01DX005 (ip), vehicle: Klucel (hydroxypropylcellulose) (HPC)); 96 % of control and 107 % of control (dose: 25.0 mg/kg/injection, schedule: Q01DX005 (ip), vehicle: Klucel (hydroxypropylcellulose) (HPC)); 96 % of control (dose: 50.0 mg/kg/injection, schedule: Q01DX005 (ip), vehicle: Klucel (hydroxypropylcellulose) (HPC)).
On to `N[C@@H](Cc1c[nH]c2ccccc12)C(=O)Nc1nncs1`, for which the T/C runs as follows: (dose: 18.75 mg/kg/injection, schedule: Q01DX005 (ip), vehicle: saline) 99 % of control; (dose: 37.5 mg/kg/injection, schedule: Q01DX005 (ip), vehicle: saline) 96 % of control; (dose: 75.0 mg/kg/injection, schedule: Q01DX005 (ip), vehicle: saline) 90 % of control; (dose: 150.0 mg/kg/injection, schedule: Q01DX005 (ip), vehicle: saline) 92 % of control; (dose: 300.0 mg/kg/injection, schedule: Q01DX005 (ip), vehicle: saline) 96 % of control.
As for `COc1cccc(Sc2ccc([N+](=O)[O-])c3no[n+]([O-])c23)c1`, the T/C runs as follows: (dose: 1.56 mg/kg/injection, schedule: Q01DX005 (ip), vehicle: saline with Tween-80) 98 % of control; (dose: 3.12 mg/kg/injection, schedule: Q01DX005 (ip), vehicle: saline with Tween-80) 100 % of control; (dose: 6.25 mg/kg/injection, schedule: Q01DX005 (ip), vehicle: saline with Tween-80) 107 % of control; (dose: 12.5 mg/kg/injection, schedule: Q01DX005 (ip), vehicle: saline with Tween-80) 110 % of control; (dose: 25.0 mg/kg/injection, schedule: Q01DX005 (ip), vehicle: saline with Tween-80) 101 % of control.
As to `CN(C)CCN1C(=O)c2cccc3cc(N)cc(c23)C1=O`, the T/C is 109 % of control and 117 % of control (dose: 7.0 mg/kg/injection, schedule: Q01DX009 (ip), vehicle: saline with Tween-80); 116 % of control (dose: 11.0 mg/kg/injection, schedule: Q01DX009 (ip), vehicle: saline with Tween-80); 106 % of control and 113 % of control (dose: 16.0 mg/kg/injection, schedule: Q01DX009 (ip), vehicle: saline with Tween-80); 112 % of control and 116 % of control (dose: 24.0 mg/kg/injection, schedule: Q01DX009 (ip), vehicle: saline with Tween-80).
As for `Cc1c2oc3c(C)ccc(C(=O)N[C@@H]4C(=O)N[C@H](C(C)C)C(=O)N5CCC[C@H]5C(=O)N(C)CC(=O)N(C)[C@@H](C(C)C)C(=O)O[C@H]4C)c3nc-2c(C(=O)N[C@@H]2C(=O)N[C@H](C(C)C)C(=O)N3CCC[C@H]3C(=O)N(C)CC(=O)N(C)[C@@H](C(C)C)C(=O)O[C@H]2C)c(N)c1=O` (I: [aThr][dV]P[Sar][NMeV] / II: [aThr][dV]P[Sar][NMeV]; ester I:1-I:C, II:1-II:C; linker I:N-II:N via Actinocin(9to1)), the T/C runs as follows: (dose: 25.0 micrograms/kg/injection, schedule: Q01DX005 (ip), vehicle: saline + alcohol) 124 % of control; (dose: 50.0 micrograms/kg/injection, schedule: Q01DX005 (ip), vehicle: saline + alcohol) 120 % of control; (dose: 100.0 micrograms/kg/injection, schedule: Q01DX005 (ip), vehicle: saline + alcohol) 101 % of control.

(Values after PubChem BioAssay AID322 (DTP/NCI, 2004).)
